Laboratory results published in patent US8389573B2, “Glycyrrhetinic acid derivatives” (Wellington Laboratories Inc., priority 2006, dated 2013).

Tests used:
[1] = tested on: PPARγ; test: PPARγ-GAL4/GAL4-Luc or PPRE3-Luc transactivation in LNCaP cells; type: cell-based
Excerpt: (§1) Transfections: The Gal4 reporter construct containing 5× Gal4 response elements (pGal4) was kindly provided by Dr. Marty Mayo (University of North Carolina, Chapel Hill, N.C.). The Gal4 DBD-PPARγ construct was a gift of Dr. Jennifer L. Oberfield (Glaxo Wellcome Research and Development, Research Triangle Park, N.C.). The PPRE-luc construct contains three tandem PPREs with a minimal TATA sequence linked to the luciferase gene in pGL2. The AR-luc construct containing the −5400 to +580 region of the androgen receptor promoter was provided by Dr. Donald J. Tindall (Mayo Clinic, Rochester, Minn.), and the PSA-luc construct containing the 5.8-kilobase region of the PSA promoter was provided by Dr. Hong-Wu Cheng (University of California, Davis, Calif.). LNCaP cells (1×10^5) were seeded in 12-well plates in DMEM/Ham's F-12 media supplemented with 2.5% charcoal-stripped FBS and grown overnight. Transient transfections were performed using Lipofectamine reagent (Invitrogen) according to the protocol provided by the manufacturer. Transfection studies were performed using 0.4 μg of Gal4Luc, 0.04 μg of β-galactosidase, 0.04 μg of Gal4 DBD-PPARγ, 0.4 μg of AR-luc, and 0.3 μg of PSA-luc. Six hr after transfection, the transfection mix was replaced with complete media containing either vehicle (DMSO) or the indicated ligand for 20 to 22 hr. Cells were then lysed with 100 μl of 1× reporter lysis buffer, and 30 μl of cell extract was used for luciferase and β-galactosidase assays. A Lumicount luminometer (PerkinElmer Life and Analytical Sciences) was used to quantify luciferase and β-galactosidase activities, and the luciferase activities were normalized to β-galactosidase activity.

[2] = tested on: Sp1, Sp3 and Sp4 in liver; test: Sp protein expression in non-target tissue (liver) of treated mice; type: in vivo; details: preliminary results
Excerpt: (i) Animal treatment: Male athymic nude mice are obtained from commercial sources and their use approved by the Institutional Animal Care and Use Committee. Ten animals are used for each treatment group and based on consultation with biostatisticians, this number is sufficient for determining statistical significance between treatment groups (41, 42). At least one AR-positive (LNCaP/22Rv1) and AR-negative (PC3/DU145) prostate cancer cell line is used in the xenograft study. Cells are harvested by exposure to trypsin and resuspended in serum-free Hanks' balanced salt solution (HBSS). […] In addition, Western blot analysis of Sp proteins, proapoptotic and antiangiogenic responses is determined on whole cell lysates from compound- and corn oil (vehicle)-treated tumors. Where possible (depending on the amount of protein extracted), the effects of the compound versus corn oil on expression of these proteins is quantitated and statistically analyzed. In addition, the effects of the compound on Sp protein expression in non-target tissue (e.g. liver and kidney) is determined. […] Immunostaining for Sp1, Sp3 and Sp4 and for angiogenic (VEGF, VEGFR1 and VEGFR2) and apoptotic (cleaved PARP, activated caspase 3, survivin and TUNEL) proteins/responses are determined as described above.

[3] = tested on: PSA promoter; test: PSA-luc promoter luciferase assay in LNCaP cells; type: cell-based; details: basal
Excerpt: as §1, with “Six hr after transfection, the transfection mix was replaced with complete media containing either vehicle (DMSO) or the indicated ligand for 20 to 22 hr. Cells were then lysed with 100 μl of 1× reporter lysis buffer, and 30 μl of cell extract was used for luciferase and β-galactosidase assays.” left out

[4] = tested on: SW480 colon cancer cells; test: Cell proliferation assay in SW480 cells; type: cell-based; details: Homo sapiens, read-out: IC50, growth inhibition / cell proliferation
Description: (§2) Human colon carcinoma cell lines SW480 and HT29 were provided by Dr. Stan Hamilton, M.D. Anderson Cancer Center (Houston, Tex.); SW-480 and HT-29 cells were maintained in Dulbecco's modified Eagle's medium nutrient mixture with Ham's F-12 (DMEM/Ham's F-12; Sigma-Aldrich, St. Louis, Mo.) with phenol red supplemented with 0.22% sodium bicarbonate, 0.011% sodium pyruvate, and 5% fetal bovine serum and 10 ml/l 100× antibiotic antimycotic solution (Sigma-Aldrich). Cells were maintained at 37° C. in the presence of 5% CO2.
(§3) SW480 and HT 29 Cells (2×10^4) were plated in 12-well plates, and media were replaced the next day with DMEM/Ham's F-12 media containing 2.5% charcoal-stripped FBS and either vehicle (DMSO) or the indicated ligand and dissolved in DMSO. Fresh media and compounds were added every 48 h. Cells were counted at the indicated times using a Coulter Z1 cell counter. Each experiment was done in triplicate, and results are expressed as means±S.E. for each determination

[5] = tested on: AR promoter; test: AR-luc promoter luciferase assay in LNCaP cells; type: cell-based
Excerpt: as §1, with “Six hr after transfection, the transfection mix was replaced with complete media containing either vehicle (DMSO) or the indicated ligand for 20 to 22 hr. Cells were then lysed with 100 μl of 1× reporter lysis buffer, and 30 μl of cell extract was used for luciferase and β-galactosidase assays.” left out

[6] = tested on: HT-29 colon cancer cells; test: Cell proliferation assay in HT-29 cells; type: cell-based; details: Homo sapiens, read-out: IC50, growth inhibition / cell proliferation
Description: as §2, §3

[7] = tested on: p21 promoter; test: p21 promoter construct luciferase assay in LNCaP cells; type: cell-based; details: 1-5 μM

Sp1, Sp3 and Sp4 expression in liver [2]: unaffected | IC50 [4]: 200 to 500 nM | IC50 [6]: 200 to 500 nM
Structure (SMILES): COC(=O)[C@@]1(C)CC[C@]2(C)CC[C@]3(C)C(=CC(=O)[C@@H]4[C@@]5(C)C=C(C#N)C(=O)C(C)(C)[C@@H]5CC[C@]43C)[C@@H]2C1 [β-CDODA-Me, Methyl 2-cyano-3,11-dioxo-18β-oleana-1,12-dien-30-oate]
induced transactivation after cotreatment with 10 μM T007 [1]: significant inhibition of induced transactivation | PPARγ-dependent transactivation (luciferase activity) ([1]; 1-5 μM): significantly induced luciferase activity | transactivation of PSA-Luc construct [3]: inhibited transactivation | luciferase activity of AR-Luc construct [5]: decreased luciferase activity | luciferase activity of p21 promoter constructs [7]: induces luciferase activity
